Data reported in the CheMixHub drug solubility set.

Assay: xn = mol fraction of the nth substance listed, in the solute-free solvent

CS(=O)(=O)c1ccc(C(O)C(CF)NC(=O)C(Cl)Cl)cc1 (stereo unspecified) + CC(C)O + O
solubility (g/100 g solution)
Conditions	278.15 K	283.15 K	288.15 K	293.15 K	298.15 K	303.15 K	308.15 K	313.15 K	318.15 K
x2 = 0.03225	0.082	0.109	0.146	0.189	0.246	0.32	0.403	0.515	0.641
x2 = 0.06974	0.117	0.159	0.216	0.278	0.362	0.488	0.613	0.798	1
x2 = 0.1139	0.16	0.215	0.286	0.379	0.504	0.64	0.828	1.06	1.35
x2 = 0.1666	0.199	0.266	0.353	0.472	0.608	0.787	1.01	1.29	1.64
x2 = 0.2307	0.237	0.317	0.422	0.56	0.717	0.931	1.19	1.5	1.88
x2 = 0.3103	0.276	0.367	0.481	0.629	0.81	1.05	1.34	1.67	2.1
x2 = 0.4117	0.296	0.398	0.516	0.669	0.873	1.14	1.42	1.78	2.24
x2 = 0.5454	0.308	0.411	0.536	0.702	0.9	1.16	1.47	1.89	2.32
x2 = 0.7297	0.309	0.407	0.537	0.697	0.911	1.14	1.47	1.84	2.29

CC1(C)SC2C(NC(=O)C(NC(=O)N3CCNC3=O)c3ccccc3)C(=O)N2C1C(=O)O (stereo unspecified) + CO + CC(C)O
solubility (g/100 g solution)
Conditions	278.15 K	283.15 K	288.15 K	293.15 K	298.15 K	303.15 K	308.15 K	313.15 K	318.15 K	323.15 K
x2 = 0.1	0.0982	0.114	0.133	0.163	0.195	0.225	0.276	0.333	0.411	0.503
x2 = 0.199	0.115	0.133	0.155	0.196	0.228	0.289	0.344	0.425	0.516	0.639
x2 = 0.3	0.139	0.156	0.188	0.229	0.277	0.331	0.4	0.501	0.611	0.735
x2 = 0.4	0.156	0.173	0.202	0.247	0.299	0.361	0.455	0.551	0.673	0.832
x2 = 0.497	0.165	0.186	0.227	0.266	0.323	0.394	0.504	0.618	0.749	0.926
x2 = 0.6	0.186	0.22	0.255	0.298	0.374	0.448	0.55	0.678	0.811	0.994
x2 = 0.7	0.215	0.243	0.295	0.353	0.42	0.494	0.625	0.742	0.889	1.13
x2 = 0.8	0.251	0.297	0.35	0.43	0.49	0.584	0.732	0.868	1.09	1.34
x2 = 0.9	0.297	0.368	0.427	0.507	0.602	0.722	0.92	1.14	1.37	1.68
